Measurements: patent publication US9028806B2, “Method for impregnation with supercritical CO2” (Pierre Fabre Medicament, priority 2009, dated 2015)

Assays:
[1] = Exploratory Pk on rats, oral route (bioavailability)
Description: The study was conducted with exploratory Pk on rats: 2 mg/kg in a single dose, oral route
Administration vehicle: distilled water (Aguettant)
Positive more Electrospray (ESI+) detection LC/MS/MS (liquid chromatography/mass spectrometry/mass spectrometry) bioanalysis method
Pharmacokinetic analysis with Kinetica (Thermo Instruments, US)

[2] = Dissolution kinetics of vinflunine in pH 6.8 buffer; assay type: physicochemical; conditions: equivalent to 50 mg vinflunine in 50 ml pH 6.8 buffer, 400 rpm
Description: In a 100 ml Erlenmeyer, introduce an accurately measured test sample equivalent to 50 mg of vinflunine. Add 50 ml of pH 6.8 buffer. Place under magnetic stirring at 400 rpm. Take a 2 ml sample under magnetic stirring at 15, 30, 60 and 120 minutes. Filter these samples on Gelman GHP Acrodisc 0.45 μm polypropylene filters. The solution should be clear.
Determine the vinflunine content by means of liquid chromatography.

[3] = Dissolution kinetics of ketoprofen in water at 37° C.; assay type: physicochemical; conditions: equivalent to 50 mg ketoprofen in 50 ml water, 400 rpm
Description: In a 100 ml Erlenmeyer, introduce an accurately measured test sample equivalent to 50 mg of ketoprofen, pure or impregnating the cross-linked PVP. Add 50 ml of water. Place under magnetic stirring at 400 rpm in a water bath at 37° C.+/−2° C. […] Filter these samples on Gelman GHP Acrodisc 0.45 μm polypropylene filters. The solution should be clear.
Determine the ketoprofen content by means of liquid chromatography.

Ketoprofen Dissolution 15 min ([3]; 15 min) | Ketoprofen Dissolution 60 min ([3]; 60 min) | Compound | CL ([1]; fasted rats, 2 mg/kg single dose, oral route) | Vinflunine level at 0 ([1]; fasted rats, 2 mg/kg single dose, oral route, time 0) | Vinflunine level at 0.25 ([1]; fasted rats, 2 mg/kg single dose, oral route, time 0.25) | Vinflunine level at 0.5 ([1]; fasted rats, 2 mg/kg single dose, oral route, time 0.5) | Vinflunine level at 1 ([1]; fasted rats, 2 mg/kg single dose, oral route, time 1) | Vinflunine level at 2 ([1]; fasted rats, 2 mg/kg single dose, oral route, time 2) | Vinflunine level at 4 ([1]; fasted rats, 2 mg/kg single dose, oral route, time 4) | Vinflunine level at 6 ([1]; fasted rats, 2 mg/kg single dose, oral route, time 6) | Vinflunine level at 8 ([1]; fasted rats, 2 mg/kg single dose, oral route, time 8) | Vinflunine level at 24 ([1]; fasted rats, 2 mg/kg single dose, oral route, time 24) | AUC(0-t) ([1]; rat, in vivo, po, 2 mg/kg) | Cmax ([1]; rat, in vivo, po, 2 mg/kg) | Tmax ([1]; rat, in vivo, po, 2 mg/kg) | half-life ([1]; rat, in vivo, po, 2 mg/kg) | Vinflunine Dissolution 15 min ([2]; 15 min) | Vinflunine Dissolution 30 min ([2]; 30 min) | Vinflunine Dissolution 60 min ([2]; 60 min) | Vinflunine Dissolution 120 min ([2]; 120 min)
 |  | CC[C@]12C=CCN3CC[C@@]4(c5cc([C@@]6(C(=O)OC)C[C@@H]7C[C@@H](C(C)(F)F)CN(Cc8c6[nH]c6ccccc86)C7)c(OC)cc5N(C)[C@H]4[C@@](O)(C(=O)OC)[C@@H]1OC(C)=O)[C@@H]32 [Vinflunine base, Vinflunine] | 8.70 L/h | 0 | 19.37 | 11.75 | 17.90 | 14.93 | 13.80 | 12.03 | 10.88 | 2.59 | 200 ng·h/mL | 19.4 ng/mL | 0.25 h | 7.9 h | 252 µg/mL | 387 µg/mL | 520 µg/mL | 606 µg/mL
173 µg/mL | 171 µg/mL | CC(C(=O)O)c1cccc(C(=O)c2ccccc2)c1 (centres unmarked) [ketoprofen, Ketoprofen] |  |  |  |  |  |  |  |  |  |  |  |  |  |  |  |  |  | 
